The conditions of data set [1]: main metabolites in man, present in plasma and urine; cited from earlier work.
The subject of data set [2] is rat stomachs. The experiment in a line: Gastric emptying in the rat model (phenol red method). The format is in vivo, Male Wistar rats. Conditions: mean ± SEM. Here is the method: This study aimed to investigate the prokinetic effects of Mesdopetam, a dopamine receptor antagonist, on rat stomachs by assessing gastric emptying at three different doses: 1.24 mg/kg, 2.48 mg/kg, and 3.72 mg/kg. Male Wistar rats were used as the animal model. Gastric emptying time was measured at specific time intervals post-administration, and the results were compared to determine the impact of Mesdopetam on gastric motility.
• Animal Model: Male Wistar rats (250-300 g) were used for the study. • Drug Administration: Mesdopetam was administered orally to rats at three different doses: 1.24 mg/kg, 2.48 mg/kg, and 3.72 mg/kg. The control group received a placebo. • Experimental Groups: Rats were divided into four groups: control (receiving placebo) and three treatment groups (receiving Mesdopetam at the respective doses). • Measurement of Gastric Emptying: Gastric emptying time was measured using a non-invasive method, such as the phenol red method. Rats were fasted overnight before the experiment, and the drug was administered following the fasting period. • Data Collection: Gastric emptying time was recorded at specific time points post-treatment: 1 hour, 2 hours, 4 hours, and 8 hours. • Statistical Analysis: The data were analyzed using appropriate statistical tests (e.g., one-way ANOVA followed by post hoc tests) to determine significant differences in gastric emptying time between the control and treatment groups at each dose level.
The results of the study are presented as mean gastric emptying time (in minutes) for each group at different time points post-treatment: […]

The target of data set [3] is dopamine D3 receptor (D3R) (Homo sapiens, UniProt P35462). Conditions: antagonist; cited from earlier work.
dopamine D3 receptor (D3R), sequence (P35462 whole entry): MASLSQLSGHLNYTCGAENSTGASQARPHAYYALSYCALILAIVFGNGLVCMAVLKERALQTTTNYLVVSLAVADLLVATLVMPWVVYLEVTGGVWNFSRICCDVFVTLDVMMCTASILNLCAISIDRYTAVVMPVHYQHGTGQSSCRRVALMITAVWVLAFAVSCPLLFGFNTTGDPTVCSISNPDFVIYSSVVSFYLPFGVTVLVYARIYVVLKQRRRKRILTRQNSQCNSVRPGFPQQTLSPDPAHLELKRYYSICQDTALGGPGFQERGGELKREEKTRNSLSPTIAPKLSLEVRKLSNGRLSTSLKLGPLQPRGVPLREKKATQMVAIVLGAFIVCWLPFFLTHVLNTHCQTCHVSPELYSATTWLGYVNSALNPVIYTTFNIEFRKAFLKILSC
For data set [4] the following is noted: cited from earlier work.

Each structure is given as a SMILES string.

Consider four molecules from patent US20260053759A1, “MESDOPETAM COMPOSITIONS” (ALKEM LABORATORIES LIMITED, priority 2022, published 2026).

With `CS(=O)(=O)c1cc(F)cc(OCCN)c1` [M1], in data set [1], the “pharmacological activity of metabolite” value is “pharmacologically inactive”.
Regarding `CC(=O)NCCOc1cc(F)cc(S(C)(=O)=O)c1` [M2], the “pharmacological activity of metabolite” value in data set [1] was “pharmacologically inactive”.
For the molecule `CCCNCCOc1cc(F)cc(S(C)(=O)=O)c1` [Mesdopetam, [2-(3-fluoro-5-methylsulfonylphenoxy)ethyl]propan-1-amine], the “mean gastric emptying time” value turned out to be 38.5 ± 1.8 min in data set [2] (1.24 mg/kg oral, 1 hour post-treatment); 32.4 ± 1.5 min in data set [2] (1.24 mg/kg oral, 2 hours post-treatment); 27.9 ± 1.3 min in data set [2] (1.24 mg/kg oral, 4 hours post-treatment); 24.6 ± 1.1 min in data set [2] (1.24 mg/kg oral, 8 hours post-treatment); 32.1 ± 1.6 min in data set [2] (2.48 mg/kg oral, 1 hour post-treatment); 26.9 ± 1.4 min in data set [2] (2.48 mg/kg oral, 2 hours post-treatment). Further, the “mean gastric emptying time” value was 23.4 ± 1.2 min in data set [2] (2.48 mg/kg oral, 4 hours post-treatment); 19.8 ± 1.0 min in data set [2] (2.48 mg/kg oral, 8 hours post-treatment); 29.6 ± 1.4 min in data set [2] (3.72 mg/kg oral, 1 hour post-treatment); 23.8 ± 1.2 min in data set [2] (3.72 mg/kg oral, 2 hours post-treatment); 20.3 ± 1.0 min in data set [2] (3.72 mg/kg oral, 4 hours post-treatment); 17.5 ± 0.9 min in data set [2] (3.72 mg/kg oral, 8 hours post-treatment). In addition, the inhibition constant Ki in data set [3] was around 90 nM.
On to `CCN(CC)CCNC(=O)c1cc(Cl)c(N)cc1OC` [metoclopramide], for which, in data set [4] (aged and young patients), the “incidence of extrapyramidal reactions” value is listed as at most 25%. The “reported incidence of extrapyramidal reactions” value in data set [4] (overall) was 0.2%.
